Source: patent US12433865B2, “Compositions comprising PGI2-receptor agonists and processes for the preparation thereof” (Arena Pharmaceuticals, Inc., priority 2018, dated 2025)

Columns and labels:
[1] = Open-label multiple-dose escalation pharmacokinetic study in fasted or fed healthy subjects (Example 7 B); type: in vivo, human
Procedure: B. A second open-label, non-randomized pharmacokinetic study was conducted in healthy subjects. Fasted (cohort 1; n=19) or fed state (cohort 2, n=18) subjects received a modified-release tablet formulation of Compound 1 in a dose escalation sequence over 25 days ([…], depending upon individual subject tolerability, […]).
Two cohorts were enrolled to ensure data in 12 evaluable subjects per cohort. […]

PAH patients = assay: 22-week randomized, double-blind, placebo-controlled study (Example 8); type: in vivo, human
Procedure: A 22-week randomized, double-blind, placebo-controlled study with a dose titration period of up to 9 weeks was conducted. Sixty-one patients were randomized 2:1 Compound 1 to placebo. Right Heart Catheterization (RHC) measurements were obtained prior to study Day 1 of the dose titration period and at Week 22. The following values were obtained and recorded: pulmonary artery pressure (PAP) (systolic, diastolic, and mean), heart rate (HR), right atrial pressure (RAP), pulmonary capillary wedge pressure (PCWP) right ventricular pressure (RVP) and cardiac output (CO), pulmonary vascular resistance (PVR), arterial and mixed venous oxygen saturation […] (if applicable). Systemic vascular resistance (SVR) was estimated from blood pressure measurements. The 6-minute walk test (6MWD) was conducted according to the modified guidelines issued by the American Thoracic Society. See Am J Respir Crit Care Med 166:111-117, 2002.
Primary efficacy endpoints for the study were: a) change from baseline in PVR after 22 weeks of treatment, and b) change from baseline in 6MWD after 22 weeks of treatment.
Compound 1 was administered as a capsule in 0.01, 0.02, 0.03, 0.04, and 0.10 mg dose strengths. The formulation was supplied as a liquid-filled, size 4, hard-gelatin capsule containing Compound 1, polyoxyl 40 hydrogenated castor oil (Kolliphor® RH40) NF, butylated hydroxytoluene (BHT)NF, and colloidal silicon dioxide NF.
The starting dose of Compound 1 was 0.01 mg twice daily. The dose of Compound 1 was titrated according to patient tolerability. If the initial dose was tolerated (0.01 mg twice daily), then the dose was increased once a week in the following fashion: 0.02 mg twice daily, 0.03 mg twice daily, 0.04 mg twice daily, 0.06 mg twice daily, 0.08 mg, 0.1 mg twice daily, 0.2 mg twice daily and 0.3 mg twice daily. The dose was optionally escalated to a possible maximum total daily dose of 0.6 mg (0.3 mg twice daily), pending tolerability. […] Compound 1 daily maintenance doses were titrated as high as 0.6 mg, and the most common dose was 0.4 mg.
Subjects received concomitant oral disease-specific PAH therapy only if the dose remained stable for at least 3 months prior to the start of screening. This therapy consisted of the following: ERA and/or an agent acting on the NO pathway including the following: a PDE-5 inhibitor and a sGC stimulator. Subjects were instructed to continue the same dose and regimen of these medications for the duration of the study.

[2] = modified-release tablet once daily

accumulation index (AUC(0-24)) ([1]; 5 days of dosing at 0.60 mg, both fed and fasted state): approximately 2.1 fold | exposure in fed vs fasted state ([1]; after single administration and at steady state): similar | differences in AUC(0-24) at steady state, female vs male subjects [1, 2]: did not indicate a significant increase | increase of Cmax at steady state in female vs male subjects [1, 2]: greater than 42% | mean plasma exposure measures in females compared to males [1, 2]: Somewhat higher | plasma exposure measures vs dose ([1]; modified-release tablet once daily, 0.06 to 0.3 mg): Dose-dependent | peak-trough fluctuation ([1]; modified-release tablet once daily, across dose levels): low | effect of food on plasma exposure ([1]; modified-release tablet once daily, fed vs fasted, across dose levels): little effect of food | Tmax in the fed state ([1]; modified-release tablet, fed vs fasted): delayed | mean pre-dose and 4 hours post-dose plasma concentrations (PAH patients; during the 9-week dose titration period (FIG. 15)): continued to rise | mean steady-state pre-dose and 4-hours post-dose plasma concentrations (PAH patients; throughout the 13-week maintenance period (FIG. 15)): maintained
Compound: O=C(O)COC[C@H]1CC[C@H](COC(=O)N(c2ccccc2)c2ccc(Cl)cc2)CC1 [Compound 1, 2-(((1r,4r)-4-(((4-chlorophenyl)(phenyl)carbamoyloxy)methyl)cyclohexyl)methoxy)acetic acid]
correlation between plasma levels and improvements in PVR (PAH patients; 22-week study period, p=0.004 (FIG. 17)): significant correlation | increase of least-squares mean 6MWD (PAH patients; 22 weeks, not significantly different from placebo): 36.2 m | adverse events (PAH patients; PAH patients, 22-week study): consistent with other prostacyclin treatments for the management of PAH | mean reduction in BNP from baseline to Week 22 versus placebo (PAH patients; difference not significantly different): numerically greater | decrease of PVR from baseline to Week 22 (PAH patients; immediate-release capsule twice daily, titrated up to 0.6 mg total daily dose, p=0.02 vs placebo): 163.9 dyn·s·cm^−5 | correlation between PVR percentage change and dose (PAH patients; in vivo): no significant correlation | correlation between plasma levels and improvements in 6MWD (PAH patients; p=0.0037 (FIG. 18)): significant correlation | correlation between plasma levels and improvements in BNP (PAH patients; p=0.047 (FIG. 19)): significant correlation
